Source: publication PMC12072186, “A Novel Small Molecule Enhances Stable Dopamine Delivery to the Brain in Models of Parkinson’s Disease” (International Journal of Molecular Sciences, 2025)
Entries after “also recorded” stand apart in the source; their conditions may differ. Where two headings read alike, the source gives them in different places.

How the values were obtained:
[1] = system: caspase-3 activity; test: Tissue toxicity via caspase-3 activity assay; type: in vivo; details: liver, brain, kidney, lung, spleen, heart, serum, small intestine; young TgA53T mice; vs naïve, DMSO and D5
Procedure: We further verified cell death via caspase-3 activity assays of the liver, brain, kidney, lung, spleen, heart, serum, and small intestine in young TgA53T mice (6–7 months old).
Tissue toxicity was assessed in young (6–7-month-old) and old (12–13-month-old) A53T mice. The mice received daily i.p. escalating doses of Pegasus or control D5 (tetracycline derivative with no DA) vs. DMSO of 10, 25, 50, and 100 mg/kg for 4 days with each dose up to 16 days, and tissues were analyzed via caspase-3 activity. The caspase-3 activity assay (EnzChek® Invitrogen, Waltham, MA, USA) was conducted according to manufacturer’s protocols as we previously described.

[2] = Pharmacokinetics after single i.p. injection, serum and brain (UHPLC-MS/MS); type: in vivo, mouse; details: for Kp: intraperitoneal; for half-life / AUC(0-inf): ip
[3] = In vivo metabolism, metabolite profiling in rat brain and plasma (LC-MS/MS)
Procedure: In vivo metabolism: We performed a metabolism study (Figure 2) in male Sprague Dawley rats (6–8 weeks old) after a single i.p. injection of 50 mg/kg Pegasus. Plasma and brain samples were serially collected and assessed for the presence of possible phase-I and phase-II metabolites. […] The relative abundance of Pegasus and its metabolites in the brain and plasma was determined at the ionization parameters of the parent.
Metabolite profiling was performed in rat brain and plasma samples to detect phase-I and phase-II metabolites in male Sprague Dawley rats (6–8 weeks old, n = 6) injected (i.p.) with 50 mg/kg Pegasus. The formulation vehicle of Pegasus was 5% DMSO + 35% polyethylene glycol (PEG) 400 + 60% normal saline, and this formulation was used to measure the plasma and brain concentrations of Pegasus and all other metabolites. All samples obtained after Pegasus dosing in rats by the i.p. route of administration were used for metabolite profiling and compared to normal saline. Blood (n = 16 samples) was collected via retro-orbital plexus puncture 0.25, 1, 4, 6, 8, and 24 h pre-dose, and brain sampling was 1, 4, and 24 h post-dose (n = 6 per group). The brain samples were cleaned and perfused, then washed with PBS. The brains (approximately 1.5 g) were transferred to a 50 mL centrifuge tube and 36 mL of ice-cold PBS was added. The mixture was homogenized for about 1–2 min to obtain a uniform suspension. The precipitate was allowed to settle for 30 min at 4 °C, and 15 mL of the middle layer was collected. The plasma and brain samples were processed by the protein precipitation method. In total, 175 μL of acetonitrile was added to 25 μL of plasma samples. The samples were mixed, followed by centrifugation at 4000 rpm for 20 min. The supernatant from the samples was subjected to LC-MS/MS analysis.
The samples were analyzed by liquid chromatography tandem mass spectrometry (HPLC: LC series, Shimadzu, Chiyoda-ku, Tokyo, Japan; mass spectrometer: API4000 Triple Quad mass spectrometer, Applied Biosystems, Carlsbad, CA, USA). The samples (n = 6) were processed using protein precipitation and 1 mM stock solution, prepared in DMSO, spiked into acetonitrile to a final concentration of 4 µM, and processed using liquid chromatography tandem mass spectrometry, employing a linear gradient method using MH+/MH−(Q1) and product ion (MS/MS) scans. The evaluation of the Pegasus metabolites included demethylation, de-hydroxylation, amide cleavage, oxidation, de-hydrogenation, glucuronidation, sulfation, glutathione conjugation, and several other possibilities. The relative abundance of Pegasus and its metabolites in the brain and plasma was determined at the ionization parameters of the parent.

[4] = system: TgA53T mice; test: Elevated plus maze test in TgA53T mice; type: in vivo, mouse; details: 50 mg/kg i.p., vs DMSO
[5] = system: MPTP-treated C57BL/6 mice; test: Rotarod test in MPTP-treated mice; type: in vivo, mouse; details: MPTP 25 mg/kg i.p. day 1–5; treatment day 1–13; vs MPTP vehicle control
Procedure: MPTP was injected to male C57BL/6 mice for 5 consecutive days (Figure 4A) to destroy DA neurons, and then the mice were treated with Pegasus alone or Pegasus + Benserazide compared to L-dopa alone or L-Dopa + Benserazide.
From day 1 to day 5, MPTP was administered to all the groups except Naive at a dose of 25 mg/kg, i.p., QD. Treatment with Pegasus alone (50 mg/kg, i.p., BID), a combination of Pegasus 50 mg/kg, BID + Benserazide 10 mg/kg, QD, or a combination of L-Dopa 10 mg/kg, QD + Benserazide 10 mg/kg, QD or standalone L-Dopa 10 mg/kg, QD, started on day 1 and continued until day 13. On day 13, after the first dose of Pegasus, 4 animals/time point from each group were sacrificed at 0.5, 1, 3, 6, and 12 h, and the blood and brains were collected.
The mice were placed on an accelerating Rotarod (Columbus Instruments, Columbus, OH, USA) equipped with individual timers for each mouse. […] The mice were trained for 3 consecutive days before the final measurement.

[6] = system: DA and its metabolite HVA; test: DA and HVA ELISA on serum and brain extracts of TgA53T mice; type: in vivo, mouse; details: 50 mg/kg, 12–13-month-old TgA53T mice, vs DMSO
[7] = system: human alpha-synuclein; test: Human alpha-synuclein ELISA of brain lysates; type: in vivo, mouse; details: brain lysates of old (11–12-month-old) TgA53T mice, vs DMSO
Procedure: The concentration of CNS alpha-synuclein via ELISA was reduced in the brain lysates of old (11–12-month-old) TgA53T mice treated with Pegasus compared to DMSO-treated controls (Figure 5I).
The levels of DA and its metabolite HVA were measured using a commercially available ELISA (Cat No. MBS269234 and Cat# MBS1601074, MyBiosource, San Diego, CA, USA) on serum and brain tissue soluble extracts. Human alpha-synuclein was measured via a human-specific ELISA (Cat# 448607, BioLegend, San Diego, CA, USA) according to the manufacturer’s protocol.

[8] = system: tyrosine hydroxylase (TH+)-positive neurons; test: Tyrosine hydroxylase immunohistochemistry (DAB staining); type: in vivo, mouse; details: vs DMSO
Procedure: To further examine whether Pegasus has any effects on DA-producing neurons, we performed immunohistochemistry to visualize tyrosine hydroxylase (TH+)-positive neurons in both the SN and striatum in Pegasus-treated versus untreated mice. TH is a rate-limiting enzyme in the biosynthesis of DA in the brain. We used DAB staining to highlight the TH+ neurons.
Animals were deeply anesthetized with a mixture of Xylazine and Ketamine (8:80 mg/kg), washed with normal saline for 1 min, and then perfused with 4% paraformaldehyde (PFA) for 15 min. The brains were dissected out and immediately stored in 4% PFA for 24 h at 4 °C, and then transferred to 30% sucrose at 4 °C for 48 h. The brains were cut using a cryostat microtome into 20 µm thick coronal sections and stored at −20 °C. Staining for tyrosine hydroxylase (TH) was probed with anti-tyrosine hydroxylase antibody (Cat No: AB152, Sigma-Aldrich, St. Louis, MO, USA). GFAP (glial fibrillary acidic protein) was stained with anti-GFAP monoclonal antibody (Cat No:MS1376P1, Fisher Scientific, Newington, NH, USA). […] TH^+ cells were counted in a stereology-like manner across multiple visual fields (typically 20 fields) in a single animal, and the same procedure was repeated on several animals to obtain the best approximation of TH staining.

[9] = Plasma binding by equilibrium dialysis; type: in vitro ADME; details: mouse, rat, dog, and human plasma
Description: Many of the metabolites were formed after the amide cleavage of the parent, Pegasus, into the tetracycline or the DA scaffold and further biotransformation of those scaffolds. […] Both M8 and M11 are abundantly detected in the brain and the blood in rats and the relative abundance of brain–plasma is 318 and 131%, respectively. […] Furthermore, Pegasus is […] bound to mouse, rat, dog, and human plasma (Avg. 91–98%) using the equilibrium dialysis method.

[10] = system: alpha-synuclein; parameters: method as in PMID 38991155; details: cited from earlier work
[11] = 50 mg/kg Pegasus i.p., Sprague Dawley rats

SMILES: C[C@H]1c2ccc(NC(=O)CCC(=O)NCCc3ccc(O)c(O)c3)c(O)c2C(=O)C2=C(O)[C@]3(O)C(=O)C(C(N)=O)=C(O)CC3[C@@H](O)C21 (stereo partly shown) [Pegasus]
- Caspase-3 activity in tissues [1]: no apparent toxicity in organs; also recorded: no significant changes in caspase-3 activity
- Kp ([2]; C57BL/6 (mouse), Sprague Dawley (rat), mouse and rat brain, read-out: Share of Pegasus detected in the brain): < 0.01
- half-life ([2]; both sexes, C57BL/6, mouse, brain, 50 mg/kg, 50 mg/kg ip, read-out: Brain T1/2 (elimination) (converted)): 3.77 h
- half-life ([2]; both sexes, C57BL/6, mouse, brain, 100 mg/kg, 100 mg/kg ip, read-out: Brain T1/2 (elimination) (converted)): 1.82 h
- AUC(0-inf) ([2]; both sexes, C57BL/6, mouse, brain, 100 mg/kg, across 50 and 100 mg/kg i.p., read-out: AUC0-inf in the brain): 86.6 to 223 ng·h/mL
- half-life ([2]; both sexes, C57BL/6, mouse, brain, 100 mg/kg, across 50 and 100 mg/kg i.p., read-out: Elimination half time T1/2 in the brain): 1.82 to 3.77 h
- Kp ([2]; both sexes, C57BL/6, mouse, brain/serum, 50 mg/kg ip, read-out: Ratio of Brain/Serum (%)): 0.007
- Kp ([2]; both sexes, C57BL/6, mouse, brain/serum, 100 mg/kg ip, read-out: Ratio of Brain/Serum (%)): 0.006
- Kp ([2]; both sexes, C57BL/6, mouse, brain/serum, across 50 and 100 mg/kg i.p., read-out: Percentage ratio of brain/serum): 0.006 to 0.007
- Tmax ([2]; both sexes, C57BL/6, mouse, brain, 50 mg/kg ip, read-out: Brain Tmax): 2 h
- Tmax ([2]; both sexes, C57BL/6, mouse, brain, 100 mg/kg ip, read-out: Brain Tmax): 1.5 h
- AUC(0-inf) ([2]; both sexes, C57BL/6, mouse, serum, 50 mg/kg, 50 mg/kg ip, read-out: Serum AUC (0-inf)): 17200 ng·h/mL
- half-life ([2]; both sexes, C57BL/6, mouse, serum, 50 mg/kg, 50 mg/kg ip, read-out: Serum T1/2 (elimination) (converted)): 4.11 h
- AUC(0-inf) ([2]; both sexes, C57BL/6, mouse, serum, 100 mg/kg, 100 mg/kg ip, read-out: Serum AUC (0-inf)): 49100 ng·h/mL
- half-life ([2]; both sexes, C57BL/6, mouse, serum, 100 mg/kg, 100 mg/kg ip, read-out: Serum T1/2 (elimination) (converted)): 4.74 h
- AUC(0-inf) ([2]; both sexes, C57BL/6, mouse, serum, 100 mg/kg, across 50 and 100 mg/kg i.p., read-out: AUC0-inf in the serum): 17200 to 49100 ng·h/mL
- half-life ([2]; both sexes, C57BL/6, mouse, serum, 100 mg/kg, across 50 and 100 mg/kg i.p., read-out: Elimination half time T1/2 in the serum): 4.11 to 4.74 h
- Cmax ([2]; both sexes, C57BL/6, mouse, serum, 50 mg/kg ip, read-out: Serum Cmax): 7.97 µM
- Cmax ([2]; both sexes, C57BL/6, mouse, serum, 50 mg/kg ip, read-out: Serum Cmax (ng/ml)): 5190 ng/mL
- Tmax ([2]; both sexes, C57BL/6, mouse, serum, 50 mg/kg ip, read-out: Serum Tmax): 2 h
- Cmax ([2]; both sexes, C57BL/6, mouse, serum, 100 mg/kg ip, read-out: Serum Cmax): 32.7 µM
- Cmax ([2]; both sexes, C57BL/6, mouse, serum, 100 mg/kg ip, read-out: Serum Cmax (ng/ml)): 21300 ng/mL
- Tmax ([2]; both sexes, C57BL/6, mouse, serum, 100 mg/kg ip, read-out: Serum Tmax): 2.5 h
- Observed in Rat Brain [3, 11]: not detected
- Observed in Rat Plasma [3, 11]: very small
- Kp ([3]; male, Sprague Dawley, intraperitoneal, 50 mg/kg, relative abundance brain vs plasma, rat): 0
- Elevated plus maze total distance traveled [4]: significantly decreased
- Elevated plus maze total number of entries to arms [4]: significantly decreased
- Percentage of entries to open arms [4]: increased
- Percentage of time spent in open arms [4]: increased
- Latency to fall (Rotarod) [5]: significantly increased latency to fall
- Concentration of DA in the brain [6]: significantly increases
- Concentration of DA in the serum [6]: significantly increases
- Concentration of HVA in the brain [6]: significantly increases
- Concentration of HVA in the serum [6]: though not HVA in the serum
- Concentration of CNS alpha-synuclein (ELISA) [7]: reduced
- Cell count of TH+ neurons in the SN ([8]; young (6–7-month-old) and old (12–13-month-old) TgA53T mice): dramatically increases the cell count
- DA nerve terminals (TH+) in the striatum ([8]; young and old TgA53T mice): dramatically increases
- Plasma binding (Avg.) [9]: 91–98%
- Protective effect on alpha-synuclein in vitro [10]: prevention of alpha-synuclein misfolding
